Experimental data published in patent US20250270617A1, “Compound - diagnostic marker for kidney cancer, method for detecting enzymatic activity, method for diagnosis of kidney cancer, kit comprising the compound, uses of the compound and method for the treatment of kidney cancer” (URTESTE S.A., priority 2022, published 2025).
“And” between values parts separate entries of the source, which are not always exact repeats. Equal entries are not always repeated. Numbered stars: 1 amine (or outer) side, 2 acyl side, 3 side chain; on linkers, the order of the positions; unused ones are H or OH. Square brackets hold non-standard residues; d marks the D form. Ends that are not written are not given here. Benzoyl(5-NH,2-NO2) = O=C(c1cc(N[*:1])ccc1[N+](=O)[O-])[*:2]; 2Abz = Nc1ccccc1C(=O)O

Experiments:
Assay type in all cases: biochemical, human
[1] = test system: proteolytic enzymes in urine from patients with different cancers; assay: Selectivity of substrate cleavage in urine samples by cancer type; details: testicular, prostate, pancreatic, biliary duct, lung, ovary, rectum cancer; mixture of 20 samples each; FIG. 3
Text: Arabic numerals indicate the numbers of given cancer types. The samples tested for each type of cancer were derived from 20 different patients for each of the tested cancers. The results are mean values for given cancer types.
(§1) The activity of the novel compounds according to the invention was studied in a group of 20 subjects diagnosed with kidney cancer using the representative compound according to the invention. […] The remaining compounds according to the invention are characterized by the analogous mechanism of action. For this purpose, the representative compound according to the invention, ABZ^1-Leu^2-Pro^3-Gly^4-Thr^5-ANB^6—NH2, was dissolved in dimethyl sulfoxide (at a concentration of 0.5 mg/mL) and then 50 μL of the solution was mixed with 120 μL of a buffer (200 mM Tris-HCl, pH 8.0) and 80 μL of urine from a subject suffering from kidney cancer. The measurement was performed on a 96-well plate designed for measuring absorbance and each sample was analysed in triplicate at the temperature of 37° C. The duration of the measurement was 60 minutes. During the measurement, the wavelength characteristic for the chromophore (ANB-NH2) being released was monitored at the wavelength 405 nm (range 380-430 nm).
Furthermore, the dependence of the cleavage selectivity of the substrate, i.e. the compound according to the invention, on the cancer type being examined, was studied. […]

[2] = test system: proteolytic enzymes in urine from a person diagnosed with kidney cancer; assay: RP HPLC analysis of substrate cleavage in urine from a person with kidney cancer; details: randomly selected urine from a person diagnosed with kidney cancer; FIG. 1
[3] = test system: proteolytic enzymes in urine; assay: Dependence of substrate hydrolysis on reaction pH; details: FIG. 4
Experimental: Furthermore, measurements concerning the dependence of the proteolytic activity of the representative compound according to the invention on the reaction pH were performed.

[4] = test system: proteolytic enzymes specific/characteristic of kidney cancer in urine; assay: Absorbance measurement of substrate hydrolysis in individual urine samples (kidney cancer and healthy subjects); details: for Results of absorbance analysis (rate of hydrolysis of the substrate): 405 nm, 37° C., 60 minutes, pH 8.0, triplicate
Experimental: as §1
The observed magnitude of increase in absorbance in time is different for each of the examined samples.
Such a result may be due to the difference in the activity as well as the amount of enzymes responsible for the enzymatic cleavage (proteolysis). […] The result indicates the absence of proteolytic enzymes specific/characteristic of kidney cancer.

[5] = test system: proteolytic enzymes specific/characteristic of kidney cancer in urine; assay: as above

## ABZ-Leu-Pro-Gly-Thr-ANB-NH2 ([2Abz]LPGT-{Benzoyl(5-NH,2-NO2)-NH2}) [chromogenic/fluorogenic peptide; ABZ is 2-aminobenzoic acid, ANB-NH2 is amide of 5-amino-2-nitrobenzoic acid]
[1]
  Cleavage of the substrate in samples from patients with other cancers: is not subject to cleavage
[2]
  Cleavage products by RP HPLC analysis: cleaves into the peptide fragment ABZ-Leu-Pro-Gly-Thr-OH and the chromophore group of the compound (ANB-NH2)
[3]
  Dependence of the hydrolysis level of the substrate on pH: maximum activity at alkaline pH
[4]; all samples N1-N20
  Cleavage of the substrate in urine samples from persons suffering from kidney cancer: underwent cleavage
[4]; compared with samples N5 or N20, FIG. 2, Table 1
  Efficiency of substrate cleavage in samples N3 and N6: less efficiently
[4]; urine sample 21, healthy subject
  Results of absorbance analysis (rate of hydrolysis of the substrate): 0.000000
[4]; urine sample 22, healthy subject
  Results of absorbance analysis (rate of hydrolysis of the substrate): 0.000000
[4]; urine sample 23, healthy subject
  Results of absorbance analysis (rate of hydrolysis of the substrate): 0.000000
[4]; urine sample 24, healthy subject
  Results of absorbance analysis (rate of hydrolysis of the substrate): 0.000000
[4]; urine sample 25, healthy subject
  Results of absorbance analysis (rate of hydrolysis of the substrate): 0.000000
[4]; urine sample 26, healthy subject
  Results of absorbance analysis (rate of hydrolysis of the substrate): 0.000000
[4]; urine sample 27, healthy subject
  Results of absorbance analysis (rate of hydrolysis of the substrate): 0.000000
[4]; urine sample 28, healthy subject
  Results of absorbance analysis (rate of hydrolysis of the substrate): 0.000000
[4]; urine sample 29, healthy subject
  Results of absorbance analysis (rate of hydrolysis of the substrate): 0.000000
[4]; urine sample 30, healthy subject
  Results of absorbance analysis (rate of hydrolysis of the substrate): 0.000000
[4]; urine sample 31, healthy subject
  Results of absorbance analysis (rate of hydrolysis of the substrate): 0.000000
[4]; urine sample 32, healthy subject
  Results of absorbance analysis (rate of hydrolysis of the substrate): 0.000000
[4]; urine sample 33, healthy subject
  Results of absorbance analysis (rate of hydrolysis of the substrate): 0.000000
[4]; urine sample 34, healthy subject
  Results of absorbance analysis (rate of hydrolysis of the substrate): 0.000000
[4]; urine sample 36, healthy subject
  Results of absorbance analysis (rate of hydrolysis of the substrate): 0.000000
[4]; urine sample 37, healthy subject
  Results of absorbance analysis (rate of hydrolysis of the substrate): 0.000000
[4]; urine sample 38, healthy subject
  Results of absorbance analysis (rate of hydrolysis of the substrate): 0.000000
[4]; urine sample 39, healthy subject
  Results of absorbance analysis (rate of hydrolysis of the substrate): 0.000000
[4]; urine sample 40, healthy subject
  Results of absorbance analysis (rate of hydrolysis of the substrate): 0.000000
[4]; urine sample N1, subject with kidney cancer
  Results of absorbance analysis (rate of hydrolysis of the substrate): 0.027 and 0.019 and 0.023
[4]; urine sample N2, subject with kidney cancer
  Results of absorbance analysis (rate of hydrolysis of the substrate): 0.021 and 0.014 and 0.019
[4]; urine sample N4, subject with kidney cancer
  Results of absorbance analysis (rate of hydrolysis of the substrate): 0.032 and 0.029 and 0.03
[4]; urine sample N5, subject with kidney cancer
  Results of absorbance analysis (rate of hydrolysis of the substrate): 0.034 and 0.032 and 0.029
[4]; urine sample N6, subject with kidney cancer
  Results of absorbance analysis (rate of hydrolysis of the substrate): 0.0033 and 0.0027 and 0.003
[4]; urine sample N7, subject with kidney cancer
  Results of absorbance analysis (rate of hydrolysis of the substrate): 0.02 and 0.021 and 0.018
[4]; urine sample N9, subject with kidney cancer
  Results of absorbance analysis (rate of hydrolysis of the substrate): 0.031 and 0.03 and 0.035
[4]; urine sample N10, subject with kidney cancer
  Results of absorbance analysis (rate of hydrolysis of the substrate): 0.0026 and 0.0037 and 0.0031
[4]; urine sample N11, subject with kidney cancer
  Results of absorbance analysis (rate of hydrolysis of the substrate): 0.012 and 0.01 and 0.015
[4]; urine sample N12, subject with kidney cancer
  Results of absorbance analysis (rate of hydrolysis of the substrate): 0.0098 and 0.0111 and 0.012
[4]; urine sample N13, subject with kidney cancer
  Results of absorbance analysis (rate of hydrolysis of the substrate): 0.004 and 0.0051 and 0.0045
[4]; urine sample N14, subject with kidney cancer
  Results of absorbance analysis (rate of hydrolysis of the substrate): 0.0036 and 0.0033 and 0.0032
[4]; urine sample N15, subject with kidney cancer
  Results of absorbance analysis (rate of hydrolysis of the substrate): 0.0043 and 0.0037 and 0.004
[4]; urine sample N16, subject with kidney cancer
  Results of absorbance analysis (rate of hydrolysis of the substrate): 0.0039 and 0.0037 and 0.0035
[4]; urine sample N17, subject with kidney cancer
  Results of absorbance analysis (rate of hydrolysis of the substrate): 0.013 and 0.0135 and 0.0136
[4]; urine sample N18, subject with kidney cancer
  Results of absorbance analysis (rate of hydrolysis of the substrate): 0.004 and 0.0032 and 0.0038
[4]; urine sample N19, subject with kidney cancer
  Results of absorbance analysis (rate of hydrolysis of the substrate): 0.0038 and 0.004 and 0.0037
[4]; urine sample N20, subject with kidney cancer
  Results of absorbance analysis (rate of hydrolysis of the substrate): 0.031 and 0.026
[5]; samples 21 to 40, without a cancer diagnosis
  Increase in absorbance / hydrolysis in urine samples from healthy persons: does not lead to an increase in absorbance
[5]; urine sample 35, healthy subject, 405 nm, 37° C., 60 minutes, pH 8.0, triplicate
  Results of absorbance analysis (rate of hydrolysis of the substrate): 0.000000
